Assay results as given in the supplement of paper PMC8671470.

Tests used:
Conditions in all cases: 72 h
[1] = system: KCL-22
Procedure, shortened: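 Seeded in RPMI 1640 at densities within the linear growth range, fifteen myeloid leukaemia cell lines were dispensed into 384-well plates with acoustically pre-printed compounds spanning five tenfold doses from 1 to 10,000 nM, in duplicate. The plates were kept for 72 h at 37 °C in 5% CO2 before luminescent ATP viability was measured and normalised to vehicle and to a positive control at 10 µM. Curves were fitted with a four-parameter log-logistic model. The IC50 was taken from those curves.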

[2] = system: HL-60; test: cell viability (% survival relative to DMSO control); higher = less cytotoxic
Procedure, shortened: (§1)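 Four-parameter log-logistic fits in drc and PharmacoGx supplied area under the curve where it is given. Underlying viability came from CellTiter-Glo, normalised to DMSO and proteasome-inhibitor wells, with the proteasome inhibitor at 10 μM. HL-60 cells in RPMI 1640 plus 10% FBS had been rescreened against the full library at five tenfold concentrations of 1–10,000 nM, in duplicate on 384-well plates, with DMSO or 100 nM of one of three metabolic inhibitors, for 72 h at 37 °C, 5% CO2.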

[3] = system: BV-173; test: cell viability (% survival relative to DMSO control, bortezomib = 0%); higher = less cytotoxic
Procedure, shortened: (§2)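 Fifteen myeloid leukaemia cell lines were exposed to compounds at 1, 10, 100, 1000 or 10000 nM in 384-well plates for 72 h at 37 °C and 5% CO2. Viability was read by CellTiter-Glo luminescence and normalised, with vehicle as 100% and a 10 µM positive control as 0%. Values are percent survival averaged over duplicates.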

[4] = system: HEL; test: as above
Procedure, shortened: as §2

[5] = system: HL-60; test: as above
Procedure, shortened: as §2

[6] = system: K-562; test: as above
Procedure, shortened: as §2

[7] = system: KCL-22; test: as above
Procedure, shortened: as §2

[8] = system: KG-1; test: as above
Procedure, shortened: as §2

[9] = system: KU-812; test: as above
Procedure, shortened: as §2

[10] = system: LAMA-84; test: as above
Procedure, shortened: as §2

[11] = system: ML-2; test: as above
Procedure, shortened: as §2

[12] = system: MOLM-13; test: as above
Procedure, shortened: as §2

[13] = system: MV4-11; test: as above
Procedure, shortened: as §2

[14] = system: Mono-Mac-6; test: as above
Procedure, shortened: as §2

[15] = system: NOMO-1; test: as above
Procedure, shortened: as §2

[16] = system: SHI-1; test: as above
Procedure, shortened: as §2

[17] = system: THP-1; test: as above
Procedure, shortened: as §2

[18] = system: HL-60; test: area under dose-response curve (viability, 1 nM-10 uM) (fraction (0-1)); higher = more sensitive
Procedure, shortened: as §1

Cc1cc(O)c2c(c1)C(=O)c1cc(O)cc(O)c1C2=O [Emodin]
Conditions	IC50 (cell viability) [µM]
[1]	> 10

cell viability [%], [2]
Conditions	0.001 µM	0.01 µM	0.1 µM	1 µM	10 µM
co-treatment: AZD3965 100 nM	101	97.9	101	97.585	98.7
co-treatment: DMSO vehicle	102	100	101	102.6	103.5
co-treatment: GSK2194069 100 nM	92.5	76.2	94	74.7	96.7
co-treatment: pictilisib 100 nM	96.6	107	97.4	89.4	97.6

Conditions	area under dose-response curve, co-treatment: AZD3965 100 nM	area under dose-response curve, co-treatment: DMSO vehicle	area under dose-response curve, co-treatment: GSK2194069 100 nM	area under dose-response curve, co-treatment: pictilisib 100 nM	cell viability, 1 nM [%]	cell viability, 10 nM [%]	cell viability, 100 nM [%]	cell viability, 1000 nM [%]	cell viability, 10000 nM [%]
[3]	–	–	–	–	88.8	111	99.8	74.6	89.8
[4]	–	–	–	–	105	114	98.5	89.8	115
[5]	–	–	–	–	90.5	97.8	124	88.2	109
[6]	–	–	–	–	109	94.2	102	102	112
[7]	–	–	–	–	103	97.9	96.6	98.5	96
[8]	–	–	–	–	90.7	89.7	96.1	97.3	94.9
[9]	–	–	–	–	95.1	100	104	89.8	80.8
[10]	–	–	–	–	102	100	102	96.5	112
[11]	–	–	–	–	97.8	104	101	89.5	98.2
[12]	–	–	–	–	67	101	112	95.2	71.4
[13]	–	–	–	–	92.8	85.6	93	99	100
[14]	–	–	–	–	92.1	106	97.3	102	81.7
[15]	–	–	–	–	99.1	100	103	104	112
[16]	–	–	–	–	88.6	97.8	98.3	94.5	93.5
[17]	–	–	–	–	90.6	97.3	106	90.5	105
[18]	< 0.0301	< 0.0301	< 0.0301	< 0.0301	–	–	–	–	–

NS(=O)(=O)c1ccc(NC(=O)Cc2ccccc2)cc1 [4-(2-Phenylacetamido)Benzenesulfonamide]
Conditions	IC50 (cell viability) [µM]
[1]	> 10

cell viability [%], [2]
Conditions	0.001 µM	0.01 µM	0.1 µM	1 µM	10 µM
co-treatment: AZD3965 100 nM	97.2	100	99.29	101	99.6
co-treatment: DMSO vehicle	92.5	94.4	100	100	98.28
co-treatment: GSK2194069 100 nM	104	99.5	99.14	99.4	103
co-treatment: pictilisib 100 nM	101	85.2	94	97.6	92.9

Conditions	area under dose-response curve, co-treatment: AZD3965 100 nM	area under dose-response curve, co-treatment: DMSO vehicle	area under dose-response curve, co-treatment: GSK2194069 100 nM	area under dose-response curve, co-treatment: pictilisib 100 nM	cell viability, 1 nM [%]	cell viability, 10 nM [%]	cell viability, 100 nM [%]	cell viability, 1000 nM [%]	cell viability, 10000 nM [%]
[3]	–	–	–	–	118	94.8	105	114	92.9
[4]	–	–	–	–	106	108	78.6	99	106
[5]	–	–	–	–	162	97.6	115	106	89.7
[6]	–	–	–	–	100	99.4	103	112	97.2
[7]	–	–	–	–	99.8	102	83.9	108	93.9
[8]	–	–	–	–	99	106	85.8	90	103
[9]	–	–	–	–	92.1	99.1	105	105	107
[10]	–	–	–	–	97.4	104	110	97.4	102
[11]	–	–	–	–	98.7	102	95.6	108	102
[12]	–	–	–	–	95.7	99.9	81	84.6	81.3
[13]	–	–	–	–	108	109	95.7	91.3	86.6
[14]	–	–	–	–	87.8	108	95.9	102	96.9
[15]	–	–	–	–	97.5	102	108	109	107
[16]	–	–	–	–	106	105	91.2	102	102
[17]	–	–	–	–	89.8	105	109	99	87.8
[18]	< 0.0301	< 0.0301	< 0.0301	< 0.0301	–	–	–	–	–

CCC(CC#N)OC(=O)N[C@@H](C)c1cccc(NC(=O)Nc2ccc(-c3cnco3)c(OC)c2)c1 (stereo in doubt) [AVN-944]
Conditions	IC50 (cell viability) [µM]
[1]	0.0628

cell viability [%], [2]
Conditions	0.001 µM	0.01 µM	0.1 µM	1 µM	10 µM
co-treatment: AZD3965 100 nM	96.6	102	102	35.4	8.09
co-treatment: DMSO vehicle	99.36	97.01	103	50	12.9
co-treatment: GSK2194069 100 nM	99.2	105	100	53	12.3
co-treatment: pictilisib 100 nM	102.95	98.5	93.8	48.9	9.49

Conditions	area under dose-response curve, co-treatment: AZD3965 100 nM	area under dose-response curve, co-treatment: DMSO vehicle	area under dose-response curve, co-treatment: GSK2194069 100 nM	area under dose-response curve, co-treatment: pictilisib 100 nM	cell viability, 1 nM [%]	cell viability, 10 nM [%]	cell viability, 100 nM [%]	cell viability, 1000 nM [%]	cell viability, 10000 nM [%]
[3]	–	–	–	–	93.8	80.7	50.8	-0.621	-0.6
[4]	–	–	–	–	101	119	70	4.65	2.7
[5]	–	–	–	–	94.9	85.7	61.6	12.6	1.98
[6]	–	–	–	–	103	96.9	30.3	10.1	5.46
[7]	–	–	–	–	94.6	114	32.7	11.6	7.56
[8]	–	–	–	–	108	99.4	74.1	27	20.2
[9]	–	–	–	–	93.6	106	50.2	9.58	3.66
[10]	–	–	–	–	92.5	102	43.9	19	12.5
[11]	–	–	–	–	99.6	111	29.5	1.17	-0.0869
[12]	–	–	–	–	130	121	8.35	1.17	0.252
[13]	–	–	–	–	92.1	96.4	35.8	-0.602	-0.425
[14]	–	–	–	–	90.2	90.5	60.2	16.4	8.67
[15]	–	–	–	–	99.9	101	86.5	34	10.4
[16]	–	–	–	–	104	107	68.2	12.4	8.7
[17]	–	–	–	–	101	99.7	101	65.3	43.1
[18]	0.273	0.233	0.227	0.255	–	–	–	–	–
